Values of other authors in PubChem BioAssay AID1259409 (Chemical Carcinogenesis Research Information System (CCRIS), 2018).

Test system: rodent chemically induced tumor inhibition, incidence and multiplicity
Assay: CCRIS tumor inhibitor studies

In the case of `CC(=O)O[C@@H]1[C@H]2[C@@H](OC(=O)c3ccccc3)[C@@H](OC(=O)c3ccccc3)[C@]3(C)[C@@H](OC(=O)c4ccccc4)[C@@H](OC(=O)c4ccccc4)C[C@@H](C)[C@@]13OC2(C)C`, the “tumour outcome (control, treated, inhibition, significance)” value (Carcinogen: 7,12-DIMETHYLBENZ[A]ANTHRACENE, 57-97-6, Dose [Inhibitor]: 0, 85 NMOL IN 0.1 ML ACETONE 2/WK APPLIED 1 HR POST EACH PROMOTER DOSE BEGINNING 1 WK POST CARCINOGEN DOSE AND CONTINUIN, Route [Inhibitor]: DERMAL, Species: MOUSE, Strain/Sex: ICR/FEMALE, Target Tissue: Type of Lesion: SKIN: TUMOR, Dose [Carcinogen]: 390 NMOL IN 0.1 ML ACETONE ONCE, Promoter: 12-O-TETRADECANOYLPHORBOL-13-ACETATE, 16561-29-8) is given as 100%, 52%, 48%, not calculated and the “tumour outcome (control, treated, inhibition, significance)” value (Carcinogen: 7,12-DIMETHYLBENZ[A]ANTHRACENE, 57-97-6, Dose [Inhibitor]: 0, 85 NMOL IN 0.1 ML ACETONE 2/WK APPLIED 1 HR PRIOR TO EACH PROMOTER DOSE BEGINNING 1 WK POST CARCINOGEN DOSE AND CONTI, Route [Inhibitor]: DERMAL, Species: MOUSE, Strain/Sex: ICR/FEMALE, Target Tissue: Type of Lesion: SKIN: TUMOR, Dose [Carcinogen]: 390 NMOL IN 0.1 ML ACETONE ONCE, Promoter: 12-O-TETRADECANOYLPHORBOL-13-ACETATE, 16561-29-8) is given as 100%, 86%, 14%, not calculated.
In the case of `CCCCCCCCCCCCCCCCCC(=O)O`, the “tumour outcome (control, treated, inhibition, significance)” value (Carcinogen: BENZO[A]PYRENE, 50-32-8, Dose [Inhibitor]: 4 MG IN 0.2 ML ACETONE 3/WK ADMINISTERED SIMULTANEOUSLY WITH CARCINOGEN FOR DURATION OF STUDY (STUDY DURATION: 440 D), Route [Inhibitor]: DERMAL, Species: MOUSE, Strain/Sex: ICR/FEMALE, Target Tissue: Type of Lesion: SKIN: PAPILLOMA, Dose [Carcinogen]: 5 UG IN 0.2 ML ACETONE THAT ALSO CONTAINED AGENT 3/WK, Promoter: NONE USED) is listed as 16/50 (32%), 25/50 (50%), -56%, not calculated and the “tumour outcome (control, treated, inhibition, significance)” value (Carcinogen: BENZO[A]PYRENE, 50-32-8, Dose [Inhibitor]: 4 MG IN 0.2 ML ACETONE 3/WK ADMINISTERED SIMULTANEOUSLY WITH CARCINOGEN FOR DURATION OF STUDY (STUDY DURATION: 440 D), Route [Inhibitor]: DERMAL, Species: MOUSE, Strain/Sex: ICR/FEMALE, Target Tissue: Type of Lesion: SKIN: SQUAMOUS CARCINOMA, Dose [Carcinogen]: 5 UG IN 0.2 ML ACETONE THAT ALSO CONTAINED AGENT 3/WK, Promoter: NONE USED) is listed as 12/50 (24%), 7/50 (14%), 42%, not calculated.
In the case of `CSc1ccc(O)cc1`, the “tumour outcome (control, treated, inhibition, significance)” value (Carcinogen: BENZO[A]PYRENE, 50-32-8, Dose [Inhibitor]: 0.03 MMOL/G OF DIET DAILY STARTING 7 D BEFORE AND CONTINUING THROUGH 3 D AFTER CARCINOGEN TREATMENT FOLLOWED BY OBSERVAT, Route [Inhibitor]: ORAL, Species: MOUSE, Strain/Sex: ICR/FEMALE, Target Tissue: Type of Lesion: FORESTOMACH: NEOPLASM, Dose [Carcinogen]: 1 MG IN 0.2 ML CORN OIL 2/WK FOR 4 WK, Promoter: NONE USED) is listed as 100%, 89%, 11%, not significant.
For `O=C(c1ccc(O)cc1O)C(c1coc2cc(O)ccc2c1=O)C(c1ccc(O)cc1)c1ccc(O)cc1` (stereo not given), the “tumour outcome (control, treated, inhibition, significance)” value (Carcinogen: 7,12-DIMETHYLBENZ[A]ANTHRACENE, 57-97-6, Dose [Inhibitor]: 0, 16 NMOL 2/WK 1 HR PRIOR TO EACH PROMOTER DOSE FOR 20 WK (STUDY DURATION: 20 WK), Route [Inhibitor]: DERMAL, Species: MOUSE, Strain/Sex: ICR/FEMALE, Target Tissue: Type of Lesion: SKIN: TUMOR, Dose [Carcinogen]: 0.19 UMOL ONCE, Promoter: 12-0-TETRADECANOYLPHORBOL-13-ACETATE, 16561-29-8) is given as 70%, 60%, 14%, not calculated.
For `CN(C)CCOc1ccc(/C(=C(/CCCl)c2ccccc2)c2ccccc2)cc1`, the “tumour outcome (control, treated, inhibition, significance)” value (Carcinogen: N-METHYL-N-NITROSOUREA (684-93-5), Dose [Inhibitor]: 0, 0.2 MG/30 G BW ONCE EVERY 4 WK BEGINNING 1 WK POST CARCINOGEN DOSE (STUDY DURATION: 31 WK), Route [Inhibitor]: SUBCUTANEOUS, Species: MOUSE, Strain/Sex: ICR/FEMALE, Target Tissue: Type of Lesion: UTERUS: ENDOMETRIAL ADENOCARCINOMA, Dose [Carcinogen]: 1 MG/100 G BW IN 0.1 ML SALINE ONCE AT 10 WKS OF AGE, Promoter: 17 BETA-ESTRADIOL (50-28-2)) is given as 8/24 (33%), 1/19 (5%), 85%, p< 0.01 and the “tumour outcome (control, treated, inhibition, significance)” value (Carcinogen: N-METHYL-N-NITROSOUREA, 684-93-5, Dose [Inhibitor]: 0, 100 MG/KG IN DIET FOR 28 D THEN REDUCED TO 50 MG/KG IN DIET FOR THE DURATION OF STUDY (STUDY DURATION: 187 D), Route [Inhibitor]: ORAL, Species: RAT, Strain/Sex: SPRAGUE-DAWLEY/FEMALE, Target Tissue: Type of Lesion: MAMMARY GLAND: TUMOR, Dose [Carcinogen]: 50 MG/KG BW ONCE, Promoter: NONE USED) is given as 100%, 46%, 54%, p<0.05.
For `O=[As]O`, the “tumour outcome (control, treated, inhibition, significance)” value (Carcinogen: NONE USED, Dose [Inhibitor]: 10 PPM IN DRINKING WATER DAILY FOR DURATION OF STUDY (STUDY DURATION: 16 MO), Route [Inhibitor]: ORAL, Species: MOUSE, Strain/Sex: C3H/FEMALE, Target Tissue: Type of Lesion: MAMMARY GLAND: ADENOCARCINOMA, Promoter: NONE USED) is given as 82%, 27%, 67%, not calculated and the “tumour outcome (control, treated, inhibition, significance)” value (Carcinogen: NONE USED, Dose [Inhibitor]: 80 PPM IN DRINKING WATER DAILY STARTING AT AGE 1 MO AND CONTINUING FOR LIFE (STUDY DURATION: LIFE), Route [Inhibitor]: ORAL, Species: MOUSE, Strain/Sex: C3H/FEMALE, Target Tissue: Type of Lesion: MAMMARY GLAND: TUMOR, Promoter: NONE USED) is given as 82%, 40%, 51%, p 0.02.
In the case of `O=c1cc[nH]c(=O)[nH]1`, the “tumour outcome (control, treated, inhibition, significance)” value (Carcinogen: 7,12-DIMETHYLBENZ[A]ANTHRACENE, 57-97-6, Dose [Inhibitor]: 1.5% IN 20% PROTEIN DIET (STUDY DURATION: 100 D), Route [Inhibitor]: ORAL, Species: RAT, Strain/Sex: STRAIN-CB/FEMALE, Target Tissue: Type of Lesion: MAMMARY GLAND: TUMOR, Dose [Carcinogen]: 15 MG IN 1 ML ARACHIS OIL 1/2 WK FOR 3 DOSES STARTING AT 30 D OF AGE, Promoter: NONE USED) is listed as 18/18 (100%), 18/21 (86%), 14%, not calculated, the “tumour outcome (control, treated, inhibition, significance)” value (Carcinogen: N-METHYL-N-NITROSOUREA, 684-93-5, Dose [Inhibitor]: 0, 3% IN DIET FOR 20 WK BEGINNING POST LAST CARCINOGEN DOSE (STUDY DURATION: 24 WK), Route [Inhibitor]: ORAL, Species: RAT, Strain/Sex: F344/MALE, Target Tissue: Type of Lesion: LUNG: ADENOMA, Dose [Carcinogen]: 20 MG/KG 2/WK FOR 4 WK, Promoter: NONE USED) is listed as 3/11 (27%), 0/9 (0%), 100%, not significant and the “tumour outcome (control, treated, inhibition, significance)” value (Carcinogen: N-METHYL-N-NITROSOUREA, 684-93-5, Dose [Inhibitor]: 0, 3% IN DIET FOR 20 WK BEGINNING POST LAST CARCINOGEN DOSE (STUDY DURATION: 24 WK), Route [Inhibitor]: ORAL, Species: RAT, Strain/Sex: F344/MALE, Target Tissue: Type of Lesion: THYROID: ADENOMA, CARCINOMA, Dose [Carcinogen]: 20 MG/KG 2/WK FOR 4 WK, Promoter: NONE USED) is listed as 6/11 (55%), 1/11 (10%), 82%, p>0.05.
For `S=C=NCC(c1ccccc1)c1ccccc1`, the “tumour outcome (control, treated, inhibition, significance)” value (Carcinogen: 4-(METHYLNITROSAMINO)-1-(3-PYRIDYL)-1-BUTANONE, 64091-91-4, Dose [Inhibitor]: 0, 1 UMOL ONCE 2 HR PRIOR TO CARCINOGEN DOSE (STUDY DURATION: 16 WK), Route [Inhibitor]: GAVAGE, Species: MOUSE, Strain/Sex: STRAIN-A/FEMALE, Target Tissue: Type of Lesion: LUNG: ADENOMA, Dose [Carcinogen]: 10 UMOL IN 0.1 ML SALINE ONCE, Promoter: NONE USED) is given as 100%, 60%, 40%, p<0.05 and the “tumour outcome (control, treated, inhibition, significance)” value (Carcinogen: 4-(METHYLNITROSAMINO)-1-(3-PYRIDYL)-1-BUTANONE, 64091-91-4, Dose [Inhibitor]: 0, 5 UMOL ONCE 2 HR PRIOR TO CARCINOGEN DOSE (STUDY DURATION: 16 WK), Route [Inhibitor]: GAVAGE, Species: MOUSE, Strain/Sex: STRAIN-A/FEMALE, Target Tissue: Type of Lesion: LUNG: ADENOMA, Dose [Carcinogen]: 10 UMOL IN 0.1 ML SALINE ONCE, Promoter: NONE USED) is given as 100%, 45%, 55%, p<0.05.
